Source: patent US6617336B1, “2-arylquinoline derivatives, preparation and therapeutic use thereof” (Sanofi-Synthelabo, priority 1999, dated 2003)

- melting point: 68 °C
Structure (SMILES): Cc1cc2cccc([C@H](CO)N3CCCC[C@H]3C)c2nc1-c1ccccc1.Cl
